Laboratory results reported in PubChem BioAssay (NCI).
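Test compounds were applied to cells in 96-well plates for 48 hours at 5 doses. Abbreviation: GI50, concentration required for 50% inhibition of growth. TGI marks complete inhibition of growth.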 Where a SMILES comes first, the peptide text is derived from it. Bridges are numbered along the chain shown (N, C = ends). Roman numbers before positions name the chains, in order. [ ]: non-standard residue; d: D form. The star is where a group is joined. Quinoxaline2carbonyl = O=C(c1cnc2ccccc2n1)*; NMeV = CN[CH](C(=O)O)C(C)C; NMeC = CN[CH](CS)C(=O)O

Key:
Test in all cases: growth of human tumour cells (NCI), 48 h
SW-620 colon = tested on: SW-620 colon
MDA-MB-231 breast = tested on: MDA-MB-231 breast
HCT-15 colon = tested on: HCT-15 colon
SNB-19 CNS = tested on: SNB-19 CNS
NCI-H23 lung = tested on: NCI-H23 lung
NCI-H226 lung = tested on: NCI-H226 lung
OVCAR-4 ovarian = tested on: OVCAR-4 ovarian
COLO 205 colon = tested on: COLO 205 colon
SF-295 CNS = tested on: SF-295 CNS
PC-3 prostate = tested on: PC-3 prostate

Row | SMILES | TGI (SW-620 colon) [µM] | TGI (MDA-MB-231 breast) [µM] | TGI (HCT-15 colon) [µM] | TGI (SNB-19 CNS) [µM] | TGI (NCI-H23 lung) [µM] | TGI (NCI-H226 lung) [µM] | TGI (OVCAR-4 ovarian) [µM] | TGI (COLO 205 colon) [µM] | TGI (SF-295 CNS) [µM] | GI50 (SW-620 colon) [µM] | GI50 (MDA-MB-231 breast) [µM] | GI50 (HCT-15 colon) [µM] | GI50 (SNB-19 CNS) [µM] | GI50 (NCI-H23 lung) [µM] | GI50 (NCI-H226 lung) [µM] | GI50 (OVCAR-4 ovarian) [µM] | GI50 (COLO 205 colon) [µM] | GI50 (SF-295 CNS) [µM] | TGI (PC-3 prostate) [µM] | GI50 (PC-3 prostate) [µM]
1 | COc1ccc(-c2cc(=O)c3c(OC)c(OC)c(OC)c(OC)c3o2)cc1 | > 100 | > 100 | > 100 | > 100 | > 100 | > 100 | > 100 | > 100 | > 100 |  |  |  |  |  |  |  |  |  |  | 
2 | COc1ccc2c(c1OC)C(=O)OC2C1c2c(c([N+](=O)[O-])c3c(c2OC)OCO3)CCN1C (stereo unspecified) | > 100 | > 100 | > 100 | > 100 | > 100 | > 100 | > 100 | > 100 | > 100 | > 100 | > 100 | > 100 | > 100 | > 100 | > 100 | > 100 | 66.6 | > 100 |  | 
3 | CC1(C)C2CCC13CS(=O)(=O)N1O[C@]13C(=O)O2 (stereo partly specified) | > 100 |  | > 100 | > 100 | > 100 | > 100 | > 100 | > 100 | > 100 |  |  |  |  |  |  |  |  |  |  | 
4 | CC1NC(=O)C(NC(=O)c2cnc3ccccc3n2)COC(=O)C(C(C)C)N(C)C(=O)C2CSSCC(C(=O)N(C)C(C(C)C)C(=O)OCC(NC(=O)c3cnc4ccccc4n3)C(=O)NC(C)C(=O)N2C)N(C)C1=O (stereo unspecified) (I: Quinoxaline2carbonyl-SA[NMeC][NMeV] / II: Quinoxaline2carbonyl-SA[NMeC][NMeV]; ester I:1-II:C, I:C-II:1; disulfide I:3-II:3; configuration not given here) | 2.98 | 0.294 | 0.365 | > 100 | < 0.0133 | 0.0237 | 0.254 |  | 16.9 |  |  |  |  |  |  |  |  |  | 1.68 | 
5 | Cc1cc2c(c(C(=O)O)c1C)-c1cccc(F)c1C2=O | > 100 |  | > 100 | > 100 | > 100 | > 100 | > 100 | > 100 | > 100 |  |  |  |  |  |  |  |  |  |  | 
6 | CC(C)c1c2[nH]c3ccccc3c2c(C(C)C)c2[nH]c3ccccc3c12 | > 100 |  | > 100 | > 100 | > 100 | > 82.8 | > 100 | > 100 | > 100 |  |  |  |  |  |  |  |  |  |  | 
7 | Cc1ccc(S(=O)OC2C3CC4CC(C3)CC2C4)cc1 (stereo unspecified) | > 100 |  | > 100 | > 100 | > 100 | > 100 | > 100 | > 100 | > 100 |  |  |  |  |  |  |  |  |  |  | 
8 | CN1CCN(Cc2ccc(NC(=O)c3[nH]ncc3Nc3ncnc4sc5c(c34)CCCC5)cc2)CC1 | 1.05 | 1.45 | 1.28 | 1.48 |  |  | 1.84 |  | 1.78 | 0.194 | 0.333 | 0.197 | 0.282 |  |  | 0.327 |  | 0.373 | 1.33 | 0.198
9 | CNS(=O)(=O)NNS(=O)(=O)c1ccc(Cl)cc1 | > 100 |  |  | > 100 | > 100 |  | > 100 | > 100 | > 100 |  |  |  |  |  |  |  |  |  |  | 
10 | CC(=O)Oc1ccccc1C(=O)/C=C/c1cccc([N+](=O)[O-])c1 | 3.9 | 13.5 |  | 15.3 | 19.6 | 30.6 | 23.1 | 11.5 | 4.16 | 1.87 | 3.48 |  | 4.43 | 5.09 | 10.9 | 5.95 | 3.29 | 1.88 | 15.3 | 3.69
